Drawing on patent US7098340B2, “Benzyl sulfonamide derivatives” (Warner Lambert Company LLC, priority 2003, dated 2006), this text covers IC50 for 25 molecules.

SMILES strings stand for the structures.

This assay has as its target T1, androgen receptor (Homo sapiens, UniProt P10275).
T1 sequence (P10275 1-920 Q868H): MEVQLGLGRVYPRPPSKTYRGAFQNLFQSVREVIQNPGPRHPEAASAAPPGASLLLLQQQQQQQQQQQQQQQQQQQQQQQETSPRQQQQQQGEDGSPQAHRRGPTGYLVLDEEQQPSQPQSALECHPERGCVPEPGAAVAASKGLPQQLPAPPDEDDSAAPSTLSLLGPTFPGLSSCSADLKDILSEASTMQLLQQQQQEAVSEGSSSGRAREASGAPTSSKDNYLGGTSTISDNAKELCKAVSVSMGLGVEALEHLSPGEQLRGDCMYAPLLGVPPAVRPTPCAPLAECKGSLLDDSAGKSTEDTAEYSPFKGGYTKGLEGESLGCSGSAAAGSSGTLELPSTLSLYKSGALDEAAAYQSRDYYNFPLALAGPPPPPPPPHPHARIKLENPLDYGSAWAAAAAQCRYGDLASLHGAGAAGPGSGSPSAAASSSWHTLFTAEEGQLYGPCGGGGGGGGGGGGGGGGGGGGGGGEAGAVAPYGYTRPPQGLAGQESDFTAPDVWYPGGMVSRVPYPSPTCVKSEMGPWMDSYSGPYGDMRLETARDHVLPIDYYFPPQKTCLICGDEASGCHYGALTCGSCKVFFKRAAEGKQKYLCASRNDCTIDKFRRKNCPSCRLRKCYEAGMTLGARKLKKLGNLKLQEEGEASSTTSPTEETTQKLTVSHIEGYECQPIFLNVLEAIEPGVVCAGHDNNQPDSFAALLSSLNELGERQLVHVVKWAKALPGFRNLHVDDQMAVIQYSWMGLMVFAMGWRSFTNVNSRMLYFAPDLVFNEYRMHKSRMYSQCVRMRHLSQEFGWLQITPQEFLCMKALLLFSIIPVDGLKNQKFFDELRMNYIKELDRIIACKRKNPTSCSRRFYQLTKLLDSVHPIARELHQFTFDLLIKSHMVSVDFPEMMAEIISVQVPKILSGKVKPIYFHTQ
The assay can be described thus: AR Antagonist Cell Assay (MMTV-luciferase reporter, DHT-stimulated). The class given is cell-based. The note with it: MDA-MB453-MMTV clone 54-19 cells; antagonism of 100 pM DHT, 17 hr, luciferase readout. Put shortly:
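MDA-MB453 cells stably carrying MMTV-ARE-firefly luciferase, in 1% charcoal-treated serum, preincubated 30 min with compound (10 uM or 1 uM) then stimulated with 100 pM DHT for 17 h at 37° C. Luminescence read; result as % inhibition of DHT fold induction.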
What is called IC50 is the concentration that inhibits the measured activity by half. Read a low IC50 as inhibition by little substance. In turn, `O=c1cc(C(F)(F)F)c2cc(Cc3ccc(S(=O)(=O)Nc4cccc5c4OC(F)(F)C(F)(F)O5)cc3)ccc2[nH]1` [Example 47, 4-(2-Oxo-4-trifluoromethyl-1,2-dihydroquinolin-6-ylmethyl)-N-(2,2,3,3-tetrafluoro-2,3-dihydrobenzo[1,4]dioxin-5-yl)-benzenesufonamide] registered an IC50 of over 10 µM.

Molecule `CN(c1ccccc1)S(=O)(=O)c1ccc(Cc2ccc3oc(=O)cc(C(F)(F)F)c3c2)cc1` [Example 114, N-Methyl-4-(2-oxo-4-trifluoromethyl-2H-chromen-6-ylmethyl)-N-phenylbenzenesulfonamide] came in with an IC50 of 5.94 µM.

Molecule `COCCNS(=O)(=O)c1ccc(Cc2ccc3[nH]c(=O)cc(C(F)(F)F)c3c2)cc1` [Example 53, N-(2-Methoxyethyl)-4-(2-oxo-4-trifluoromethyl-1,2-dihydroquinolin-6-ylmethyl)-benzenesulfonamide] came in with an IC50 of over 10 µM.

For `O=c1cc(C(F)(F)F)c2cc(Cc3ccc(S(=O)(=O)NCc4ccc(F)cc4Cl)cc3)ccc2o1` [Example 198], inhibition was half-maximal at 5.93 µM (IC50).

Take `Cc1ccc2cc(NS(=O)(=O)c3ccc(Cc4ccc5oc(=O)cc(C(F)(F)F)c5c4)cc3)ccc2n1` [Example 139, N-(2-Methylquinolin-6-yl)-4-(2-oxo-4-trifluoromethyl-2H-chromen-6-ylmethyl)-benzenesulfonamide]: half-maximal inhibition (IC50) required 2.03 µM.

In turn, `CCN(Cc1ccncc1)S(=O)(=O)c1ccc(Cc2ccc3oc(=O)cc(C(F)(F)F)c3c2)cc1` [Example 98, N-Ethyl-4-(2-oxo-4-trifluoromethyl-2H-chromen-6-ylmethyl)-N-pyridin-4-ylmethyl-benzenesulfonamide] yielded an IC50 of 2.43 µM.

Molecule `CCCN(CC1CC1)S(=O)(=O)c1ccc(Cc2ccc3oc(=O)cc(C(F)(F)F)c3c2)cc1` [Example 104, N-Cyclopropylmethyl-4-(2-oxo-4-trifluoromethyl-2H-chromen-6-ylmethyl)-N-propylbenzenesulfonamide] returned an IC50 of 1.79 µM.

Take `COc1ccc(N(Cc2ccccc2)S(=O)(=O)c2ccc(Cc3ccc4oc(=O)cc(C(F)(F)F)c4c3)cc2)cc1` [Example 154, N-Benzyl-N-(4-methoxyphenyl)-4-(2-oxo-4-trifluoromethyl-2H-chromen-6-ylmethyl)benzenesulfonamide]: the IC50 is 6.06 µM.

Molecule `CC(C)(C)c1cc(NS(=O)(=O)c2ccc(Cc3ccc4oc(=O)cc(C(F)(F)F)c4c3)cc2)cc(C(C)(C)C)c1` [Example 153, N-(3,5-Di-tert-butylphenyl)-4-(2-oxo-4-trifluoromethyl-2H-chromen-6-ylmethyl)-benzenesulfonamide] displayed an IC50 of over 10 µM.

`O=c1cc(C(F)(F)F)c2cc(Cc3ccc(S(=O)(=O)NC4CCN(Cc5ccccc5)CC4)cc3)ccc2[nH]1` [Example 52, N-(1-Benzylpipendin-4-yl)-4-(2-oxo-4-trifluoromethyl-1,2-dihydroquinolin-6-ylmethyl)-benzenesulfonamide] gave a 50% inhibitory concentration (IC50) of 9.9 µM.

`O=c1cc(C(F)(F)F)c2cc(Cc3ccc(S(=O)(=O)Nc4cccc(-c5cnco5)c4)cc3)ccc2[nH]1` [Example 38, N-(3-Oxazol-5-ylphenyl)-4-(2-oxo-4-trifluoromethyl-1,2-dihydroquinolin-6-ylmethyl)benzenesulfonamide] returned an IC50 of over 10 µM.

As to `O=c1cc(C(F)(F)F)c2cc(Cc3ccc(S(=O)(=O)Nc4ccc5ncccc5c4)cc3)ccc2[nH]1` [Example 19, 4-(2-Oxo-4-trifluoromethyl-1,2-dihydroquinolin-6-ylmethyl)-N-quinolin-6-ylbenzenesulfonamide], the concentration for half-maximal inhibition (IC50) was over 10 µM.

Molecule `O=c1cc(C(F)(F)F)c2cc(Cc3ccc(S(=O)(=O)N(Cc4ccccc4)Cc4ccccc4)cc3)ccc2[nH]1` [Example 11, N,N-Dibenzyl-4-(2-oxo-4-trifluoromethyl-1,2-dihydroquinolin-6-ylmethyl)benzenesulfonamide] gave an IC50 of over 10 µM.

Take `O=c1cc(C(F)(F)F)c2cc(Cc3ccc(S(=O)(=O)NCc4ccccc4Br)cc3)ccc2o1` [Example 203, N-(2-Bromobenzyl)-4-(2-oxo-4-trifluoromethyl-2H-chromen-6-ylmethyl)benzenesulfonamide]: half-maximal inhibition (IC50) was put at 2.19 µM.

Consider `O=c1cc(C(F)(F)F)c2cc(Cc3ccc(S(=O)(=O)NCc4ccc(Cl)cc4Cl)cc3)ccc2[nH]1` [Example 85, N-(2,4-Dichlorobenzyl)-4-(2-oxo-4-trifluoromethyl-1,2-dihydroquinolin-6-ylmethyl)-benzenesulfonamide], for which the IC50 is about 10 µM.

As to `CCN(Cc1ccccc1)S(=O)(=O)c1ccc(Cc2ccc3oc(=O)cc(C(F)(F)F)c3c2)cc1` [Example 110, N-Benzyl-N-ethyl-4-(2-oxo-4-trifluoromethyl-2H-chromen-6-ylmethyl)benzenesulfonamide], the IC50 stood at 5.94 µM.

In turn, `O=c1cc(C(F)(F)F)c2cc(Cc3ccc(S(=O)(=O)NCc4ccc(F)cc4)cc3)ccc2o1` [Example 173, N-(4-Fluorobenzyl)-4-(2-oxo-4-trifluoromethyl-2H-chromen-6-ylmethyl)benzenesulfonamide] returned an IC50 of 7.68 µM.

Consider `COc1ccccc1NS(=O)(=O)c1ccc(Cc2ccc3oc(=O)cc(C(F)(F)F)c3c2)cc1` [Example 123, N-(2-Methoxyphenyl)-4-(2-oxo-4-trifluoromethyl-2H-chromen-6-ylmethyl)-benzenesulfonamide], for which the IC50 is 4.08 µM.

`CN1CCN(CCCNS(=O)(=O)c2ccc(Cc3ccc4[nH]c(=O)cc(C(F)(F)F)c4c3)cc2)CC1` [Example 75, N-[3-(4-Methylpiperazin-1-yl)propyl]-4-(2-oxo-4-trifluoromethyl-1,2-dihydroquinolin-6-ylmethyl)-benzenesulfonamide] had an IC50 of 6.7 µM.

In turn, `Cc1ccc(NS(=O)(=O)c2ccc(Cc3ccc4oc(=O)cc(C(F)(F)F)c4c3)cc2)cc1` [Example 116, 4-(2-Oxo-4-trifluoromethyl-2H-chromen-6-ylmethyl)-N-p-tolylbenzenesulfonamide] showed an IC50 of 1.21 µM.

The molecule `O=c1cc(C(F)(F)F)c2cc(Cc3ccc(S(=O)(=O)Nc4ccccc4N4CCCCC4)cc3)ccc2[nH]1` [Example 41, 4-(2-Oxo-4-trifluoromethyl-1,2-dihydroquinolin-6-ylmethyl)-N-(2-piperidin-1-ylphenyl)-benzenesulfonamide] gave an IC50 of over 10 µM.

As for `CC(CNS(=O)(=O)c1ccc(Cc2ccc3[nH]c(=O)cc(C(F)(F)F)c3c2)cc1)c1ccccc1` (stereo not shown) [Example 65, 4-(2-Oxo-4-trifluoromethyl-1,2-dihydroquinolin-6-ylmethyl)-N-(2-phenylpropyl)-benzenesulfonamide], inhibition was half-maximal at 5.38 µM (IC50).

`COCCN(CCOC)S(=O)(=O)c1ccc(Cc2ccc3[nH]c(=O)cc(C(F)(F)F)c3c2)cc1` [Example 12, N,N-Bis(2-methoxyethyl)-4-(2-oxo-4-trifluoromethyl-1,2-dihydroquinolin-6-ylmethyl)benzenesulfonamide] displayed an IC50 of over 10 µM.

Regarding `CN(CCc1ccccc1)S(=O)(=O)c1ccc(Cc2ccc3oc(=O)cc(C(F)(F)F)c3c2)cc1` [Example 112, N-Methyl-4-(2-oxo-4-trifluoromethyl-2H-chromen-6-ylmethyl)-N-phenethyl-benzenesulfonamide], the IC50 was over 10 µM.

`CC(C)(C)CCNS(=O)(=O)c1ccc(Cc2ccc3[nH]c(=O)cc(C(F)(F)F)c3c2)cc1` [Example 54, N-(3,3-Dimethylbutyl)-4-(2-oxo-4-trifluoromethyl-1,2-dihydroquinolin-6-ylmethyl)-benzenesulfonamide] had an IC50 of over 10 µM.
